Assay results taken from PubChem BioAssay AID200 (DTP/NCI, 2004).
“And” between values parts separate entries of the source, which are not always exact repeats. Equal entries are not always repeated. Inconclusive results and toxic doses are left out. Where a SMILES comes first, the peptide text is derived from it.

System: B6C3F1 mice, B16 melanoma ip, median survival T/C
Experiment: NCI In Vivo Anticancer Drug Screen. Data for tumor model B16 Melanoma (intraperitoneal) in B6C3F1 mice
Conditions: endpoint: median survival time, higher = longer survival
How it was run: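 Transplantable tumor in mice; treated vs vehicle control groups; survival or tumor size measured; value = T/C ratio.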

[1] = dose: 12.5 mg/kg/injection, schedule: Q01DX009 (ip), vehicle: saline with Tween-80
[2] = dose: 25.0 mg/kg/injection, schedule: Q01DX009 (ip), vehicle: saline with Tween-80
[3] = dose: 50.0 mg/kg/injection, schedule: Q01DX009 (ip), vehicle: saline with Tween-80
[4] = dose: 100.0 mg/kg/injection, schedule: Q01DX009 (ip), vehicle: saline with Tween-80
[5] = dose: 200.0 mg/kg/injection, schedule: Q01DX009 (ip), vehicle: saline with Tween-80
[6] = dose: 12.5 mg/kg/injection, schedule: Q01DX009 (ip), vehicle: Klucel (hydroxypropylcellulose) (HPC)
[7] = dose: 25.0 mg/kg/injection, schedule: Q01DX009 (ip), vehicle: Klucel (hydroxypropylcellulose) (HPC)
[8] = dose: 50.0 mg/kg/injection, schedule: Q01DX009 (ip), vehicle: Klucel (hydroxypropylcellulose) (HPC)
[9] = dose: 12.5 mg/kg/injection, schedule: Q01DX009 (ip), vehicle: saline
[10] = dose: 25.0 mg/kg/injection, schedule: Q01DX009 (ip), vehicle: saline
[11] = dose: 50.0 mg/kg/injection, schedule: Q01DX009 (ip), vehicle: saline
[12] = dose: 200.0 mg/kg/injection, schedule: Q01DX009 (ip), vehicle: saline
[13] = dose: 100.0 mg/kg/injection, schedule: Q01DX009 (ip), vehicle: Klucel (hydroxypropylcellulose) (HPC)
[14] = dose: 200.0 mg/kg/injection, schedule: Q01DX009 (ip), vehicle: Klucel (hydroxypropylcellulose) (HPC)
[15] = dose: 100.0 mg/kg/injection, schedule: Q01DX009 (ip), vehicle: saline

In the case of `COc1ccc(O)cc1`, the T/C [1] is reported as 112 % of control, the T/C (dose: 18.0 mg/kg/injection, schedule: Q01DX009 (ip), vehicle: saline with Tween-80) is reported as 98 % of control and the T/C [2] is reported as 101 % of control. For the same compound, the T/C (dose: 30.0 mg/kg/injection, schedule: Q01DX009 (ip), vehicle: saline with Tween-80) was 106 % of control, the T/C [3] was 102 % of control and the T/C (dose: 89.0 mg/kg/injection, schedule: Q01DX009 (ip), vehicle: saline with Tween-80) was 106 % of control. The T/C [4] was 104 % of control, the T/C (dose: 189.0 mg/kg/injection, schedule: Q01DX009 (ip), vehicle: saline with Tween-80) was 101 % of control and the T/C [5] was 105 % of control.

With `CC(C#N)(C#N)N=Nc1ccc(Cl)cc1Cl` the T/C [1] was 98 % of control, the T/C [2] was 95 % of control and the T/C [3] was 95 % of control. The T/C [4] was 95 % of control, the T/C [5] was 110 % of control and the T/C (dose: 400.0 mg/kg/injection, schedule: Q01DX009 (ip), vehicle: saline with Tween-80) was 89 % of control.

`N=C(N)c1ccc(N=Nc2c(O)ccc3cc(O)ccc23)cc1` was tested, and the T/C (dose: 0.19 mg/kg/injection, schedule: Q01DX009 (ip), vehicle: Klucel (hydroxypropylcellulose) (HPC)) was 114 % of control, the T/C (dose: 0.39 mg/kg/injection, schedule: Q01DX009 (ip), vehicle: Klucel (hydroxypropylcellulose) (HPC)) was 99 % of control and the T/C (dose: 0.78 mg/kg/injection, schedule: Q01DX009 (ip), vehicle: Klucel (hydroxypropylcellulose) (HPC)) was 92 % of control. The T/C (dose: 1.56 mg/kg/injection, schedule: Q01DX009 (ip), vehicle: Klucel (hydroxypropylcellulose) (HPC)) was 92 % of control, the T/C (dose: 6.25 mg/kg/injection, schedule: Q01DX009 (ip), vehicle: Klucel (hydroxypropylcellulose) (HPC)) was 97 % of control and the T/C [6] was 97 % of control. The T/C [7] was 87 % of control and the T/C [8] was 89 % of control.

In the case of `O=C1N(CC2CO2)CCN1CC1CO1` (stereo unspecified), the T/C [9] is reported as 117 % of control and 97 % of control, the T/C (dose: 12.5 mg/kg/injection, schedule: Q01DX009 (ip), vehicle: suspension in saline) is reported as 114 % of control and the T/C [10] is reported as 118 % of control and 107 % of control. The T/C (dose: 25.0 mg/kg/injection, schedule: Q01DX009 (ip), vehicle: suspension in saline) was 124 % of control, the T/C [11] was 115 % of control and the T/C (dose: 50.0 mg/kg/injection, schedule: Q01DX009 (ip), vehicle: suspension in saline) was 165 % of control. The T/C (dose: 100.0 mg/kg/injection, schedule: Q01DX009 (ip), vehicle: suspension in saline) was 90 % of control and the T/C [12] was 122 % of control.

With `CCC1=C(C)c2cc3[n-]c(cc4nc(cc5[n-]c(cc1n2)c(C)c5CCC(=O)OC)C(CCC(=O)OC)=C4C)c(C)c3CC.[Ni+2]` the T/C (dose: 2.4 mg/kg/injection, schedule: Q01DX009 (ip), vehicle: saline with Tween-80) was 88 % of control, the T/C (dose: 4.7 mg/kg/injection, schedule: Q01DX009 (ip), vehicle: saline with Tween-80) was 88 % of control and the T/C (dose: 9.4 mg/kg/injection, schedule: Q01DX009 (ip), vehicle: saline with Tween-80) was 92 % of control.

In the case of `C1OC1CN1CCN(CC2CO2)CC1` (stereo unspecified), the T/C (dose: 4.0 mg/kg/injection, schedule: Q01DX009 (ip), vehicle: saline with Tween-80) is reported as 103 % of control and the T/C (dose: 16.0 mg/kg/injection, schedule: Q01DX009 (ip), vehicle: saline with Tween-80) is reported as 110 % of control.

For `CN=C(N)N/N=C(\C)c1ccc2c(c1)Cc1cc(/C(C)=N/NC(N)=NC)ccc1-2`, the T/C (dose: 0.75 mg/kg/injection, schedule: Q01DX009 (ip), vehicle: saline with Tween-80) was 97 % of control and the T/C (dose: 1.5 mg/kg/injection, schedule: Q01DX009 (ip), vehicle: saline with Tween-80) was 101 % of control.

For `Nc1ccc(Cn2ccc3c4c(N)nc(N)nc4ccc32)cc1`, the T/C (dose: 1.25 mg/kg/injection, schedule: Q01DX009 (ip), vehicle: saline with Tween-80) was 95 % of control and 100 % of control, the T/C (dose: 2.5 mg/kg/injection, schedule: Q01DX009 (ip), vehicle: saline with Tween-80) was 110 % of control and 99 % of control and the T/C (dose: 5.0 mg/kg/injection, schedule: Q01DX009 (ip), vehicle: saline with Tween-80) was 99 % of control and 105 % of control. For the same compound, the T/C (dose: 10.0 mg/kg/injection, schedule: Q01DX009 (ip), vehicle: saline with Tween-80) was 111 % of control and 119 % of control.

With `CC(C)(C)Oc1ccc(CC(NC(=O)OCC2c3ccccc3-c3ccccc32)C(=O)O)cc1` (stereo unspecified) the T/C [8] was 107 % of control, the T/C [13] was 108 % of control and the T/C [14] was 105 % of control.

For `CCN(CC)c1ccc2[nH]c3c(C(N)=O)cc(=O)c(=O)c=3oc2c1`, the T/C [1] was 96 % of control and the T/C [2] was 112 % of control.

For `O=P1(N(CCCl)CCCl)NCCCO1` (stereo unspecified), the T/C [9] was 121 % of control, the T/C (dose: 18.75 mg/kg/injection, schedule: Q01DX005 (ip), vehicle: saline) was 104 % of control and the T/C (dose: 18.75 mg/kg/injection, schedule: Q01DX005 (iv), vehicle: saline) was 111 % of control. The T/C (dose: 25.0 mg/kg/injection, schedule: Q01DX001 (ip), vehicle: saline) was 108 % of control and 103 % of control, the T/C (dose: 37.5 mg/kg/injection, schedule: Q01DX001 (ip), vehicle: saline) was 106 % of control and the T/C (dose: 37.5 mg/kg/injection, schedule: Q01DX001 (iv), vehicle: saline) was 104 % of control. The T/C (dose: 37.5 mg/kg/injection, schedule: Q01DX005 (ip), vehicle: saline) was 121 % of control, the T/C (dose: 50.0 mg/kg/injection, schedule: Q01DX001 (ip), vehicle: saline) was 111 % of control and 103 % of control and the T/C [11] was 154 % of control. For the same compound, the T/C (dose: 75.0 mg/kg/injection, schedule: Q01DX001 (ip), vehicle: saline) was 116 % of control, the T/C (dose: 75.0 mg/kg/injection, schedule: Q01DX001 (iv), vehicle: saline) was 114 % of control and the T/C (dose: 75.0 mg/kg/injection, schedule: Q01DX005 (iv), vehicle: saline) was 166 % of control. The T/C (dose: 150.0 mg/kg/injection, schedule: Q01DX005 (ip), vehicle: saline) was 190 % of control, the T/C (dose: 200.0 mg/kg/injection, schedule: Q01DX001 (ip), vehicle: saline) was 157 % of control and 161 % of control and the T/C (dose: 300.0 mg/kg/injection, schedule: Q01DX001 (ip), vehicle: saline) was 185 % of control. For the same compound, the T/C (dose: 300.0 mg/kg/injection, schedule: Q01DX001 (iv), vehicle: saline) was 166 % of control.

With `OC1CC2CCCCC2CC1c1ccccc1` (stereo unspecified) the T/C (dose: 25.0 mg/kg/injection, schedule: Q04DX003 (ip), vehicle: saline with Tween-80) was 95 % of control, the T/C (dose: 50.0 mg/kg/injection, schedule: Q04DX003 (ip), vehicle: saline with Tween-80) was 114 % of control and the T/C (dose: 100.0 mg/kg/injection, schedule: Q04DX003 (ip), vehicle: saline with Tween-80) was 104 % of control. For the same compound, the T/C (dose: 200.0 mg/kg/injection, schedule: Q04DX003 (ip), vehicle: saline with Tween-80) was 93 % of control and the T/C (dose: 400.0 mg/kg/injection, schedule: Q04DX003 (ip), vehicle: saline with Tween-80) was 92 % of control.

With `CC(C)C(NC(=O)OC(C)(C)C)C(=O)ON1C(=O)CCC1=O` (stereo unspecified) the T/C [3] was 91 % of control and the T/C [4] was 86 % of control.

`Cc1ccc2nc(-c3ccc4nc(-c5ccc(N=Nc6ccc(-c7nc8ccc(-c9nc%10ccc(C)c(S(=O)(=O)O)c%10s9)cc8s7)cc6)cc5)sc4c3)sc2c1S(=O)(=O)O` was tested, and the T/C [9] was 87 % of control, the T/C [10] was 86 % of control and the T/C [15] was 88 % of control.

For `CCC(C)C(NC(=O)CN)C(=O)O` (stereo unspecified) (HELM PEPTIDE1{G.[CCC(C)C(N[*:1])C(=O)O]}$$$$V2.0), the T/C [11] was 92 % of control, the T/C [15] was 92 % of control and the T/C [12] was 92 % of control.

For `CCCCCCCCCCCCCCCCCC1=NC(C)CC(C)(C)O1` (stereo unspecified), the T/C [11] was 96 % of control, the T/C [15] was 94 % of control and the T/C [12] was 94 % of control.

For `CC1CCOS(=O)O1` (stereo unspecified), the T/C (dose: 10.0 mg/kg/injection, schedule: Q01DX009 (ip), vehicle: saline) was 104 % of control, the T/C (dose: 20.0 mg/kg/injection, schedule: Q01DX009 (ip), vehicle: saline) was 123 % of control and the T/C (dose: 40.0 mg/kg/injection, schedule: Q01DX009 (ip), vehicle: saline) was 110 % of control.

In the case of `CC(C)(C)OC(=O)N1CCCC1C(=O)O` (stereo unspecified), the T/C (dose: 22.5 mg/kg/injection, schedule: Q01DX009 (ip), vehicle: Klucel (hydroxypropylcellulose) (HPC)) is reported as 100 % of control, the T/C (dose: 45.0 mg/kg/injection, schedule: Q01DX009 (ip), vehicle: Klucel (hydroxypropylcellulose) (HPC)) is reported as 102 % of control and the T/C (dose: 90.0 mg/kg/injection, schedule: Q01DX009 (ip), vehicle: Klucel (hydroxypropylcellulose) (HPC)) is reported as 90 % of control.

`CCCCCC(=O)O[C@]1(C(C)=O)CC[C@H]2[C@@H]3CCC4=CC(=O)CC[C@]4(C)[C@H]3CC[C@@]21C` was tested, and the T/C [6] was 97 % of control and 101 % of control, the T/C [7] was 100 % of control and 104 % of control and the T/C [8] was 96 % of control and 98 % of control. The T/C [13] was 99 % of control and 100 % of control, the T/C [14] was 97 % of control and 100 % of control and the T/C (dose: 400.0 mg/kg/injection, schedule: Q01DX009 (ip), vehicle: Klucel (hydroxypropylcellulose) (HPC)) was 91 % of control and 97 % of control.
